In patent US8163756B2 (priority 2004, dated 2012):
pIC50: −log10 of the molar value.

Key:
Format in all cases: biochemical
B-Raf(V599E) kinase = B-Raf(V599E) kinase (Homo sapiens, UniProt P15056, V600E); assay: B-Raf(V599E) kinase assay B1 (construct 1, MEK1 substrate, coupled spectrophotometric)
Method: The test compounds were incubated with the reaction mixtureat 30° C. for 2 h. […] The reaction rate was calculated using the […] time frame. […] IC50 values were calculated from a series of percent inhibition values determined at a range of inhibitor concentrations using software routines as implemented in the GraphPad Prism software package.

KDR kinase = KDR kinase (Homo sapiens, UniProt P35968, DEL940-989/E990V); assay: KDR kinase assay K1 (pyruvate kinase/lactate dehydrogenase coupled, spectrophotometric); details: Method K1; read-out: KDR Data (IC50)
Method: (§1) IC50 values were calculated from a series of percent inhibition values determined at a range of inhibitor concentrations using software routines as implemented in the GraphPad Prism software package.

Abl kinase = biological target: T1, Abl kinase (Homo sapiens, UniProt P00519); assay: Abl kinase assay A1 (pyruvate kinase/lactate dehydrogenase coupled, spectrophotometric); details: Method A1; read-out: Abl Data (IC50)
T1 sequence (P00519 229-512): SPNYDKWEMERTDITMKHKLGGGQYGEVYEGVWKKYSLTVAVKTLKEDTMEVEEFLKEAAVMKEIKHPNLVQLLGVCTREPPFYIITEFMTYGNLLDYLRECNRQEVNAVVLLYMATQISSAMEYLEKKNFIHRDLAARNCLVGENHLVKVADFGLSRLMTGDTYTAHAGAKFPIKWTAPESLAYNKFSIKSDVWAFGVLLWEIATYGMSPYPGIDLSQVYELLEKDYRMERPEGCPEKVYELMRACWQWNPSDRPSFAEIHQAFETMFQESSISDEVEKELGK
Method: as §1

[1] = biological target: phosphorylated p-38-alpha kinase (Homo sapiens, UniProt Q16539); assay: P-38 alpha kinase assay P1 (coupled spectrophotometric, 2 h pre-incubation); details: method P1 (2 h pre-incubation); read-out: P-38 Data
Sequence of phosphorylated p-38-alpha kinase (Q16539 1-360 isoform Q16539-2): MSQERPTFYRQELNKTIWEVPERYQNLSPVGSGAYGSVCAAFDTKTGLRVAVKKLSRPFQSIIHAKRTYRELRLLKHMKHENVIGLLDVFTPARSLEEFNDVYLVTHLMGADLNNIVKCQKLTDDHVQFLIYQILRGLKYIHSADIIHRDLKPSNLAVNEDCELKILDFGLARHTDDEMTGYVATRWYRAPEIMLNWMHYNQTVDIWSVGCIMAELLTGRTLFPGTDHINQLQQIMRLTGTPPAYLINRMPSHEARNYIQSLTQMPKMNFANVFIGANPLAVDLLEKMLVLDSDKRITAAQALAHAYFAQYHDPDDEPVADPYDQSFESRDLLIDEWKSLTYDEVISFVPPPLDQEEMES

Sequence of KDR kinase (P35968 with tags, fused parts or gaps DEL940-989/E990V): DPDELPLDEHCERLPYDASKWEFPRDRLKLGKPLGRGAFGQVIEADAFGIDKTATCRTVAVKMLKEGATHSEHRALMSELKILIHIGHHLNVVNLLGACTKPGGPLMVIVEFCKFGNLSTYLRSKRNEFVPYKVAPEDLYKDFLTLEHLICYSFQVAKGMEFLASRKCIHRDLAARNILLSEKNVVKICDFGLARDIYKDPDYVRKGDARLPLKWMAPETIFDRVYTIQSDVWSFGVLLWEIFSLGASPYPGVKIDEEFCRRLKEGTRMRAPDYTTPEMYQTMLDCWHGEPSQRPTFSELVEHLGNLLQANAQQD
Sequence of B-Raf(V599E) kinase (P15056 with tags, fused parts or gaps V600E): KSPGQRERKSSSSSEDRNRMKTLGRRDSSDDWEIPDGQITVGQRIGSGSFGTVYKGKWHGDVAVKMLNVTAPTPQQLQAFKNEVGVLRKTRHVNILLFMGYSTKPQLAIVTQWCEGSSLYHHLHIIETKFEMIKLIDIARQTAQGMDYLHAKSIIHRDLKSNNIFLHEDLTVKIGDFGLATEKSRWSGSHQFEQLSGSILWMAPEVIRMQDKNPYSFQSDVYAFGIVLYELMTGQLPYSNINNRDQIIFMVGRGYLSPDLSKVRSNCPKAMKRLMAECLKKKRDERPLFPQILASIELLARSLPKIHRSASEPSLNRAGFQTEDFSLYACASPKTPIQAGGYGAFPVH

Molecule `CC(C)(C)c1cc(NC(=O)Nc2cccc(Cl)c2Cl)n(-c2cccc(C(C)(C)O)c2)n1` [Example 2, 1-{3-t-butyl-1-[3-(2-hydroxypropan-2-yl)phenyl]-1H-pyrazol-5-yl}-3-(2,3-dichlorophenyl)urea] has a pIC50 (B-Raf(V599E) kinase) of 7.72, a pIC50 (KDR kinase) of 6.34 and a pIC50 (Abl kinase) of 5.70.
With `CC(C)(C)c1cc(NC(=O)Nc2cccc(Cl)c2Cl)n(-c2cccc(C#N)c2)n1` [Example 9] the pIC50 (B-Raf(V599E) kinase) was 8.34, the pIC50 (KDR kinase) was 7.33 and the pIC50 (Abl kinase) was 6.74.
Work on `COc1cccc(-n2nc(C(C)(C)C)cc2NC(=O)Nc2cccc(Cl)c2Cl)c1` [Example 15, 1-(3-t-butyl-1-(3-methoxyphenyl)-1H-pyrazol-5-yl)-3-(2,3-dichlorophenyl)urea] yielded a pIC50 (B-Raf(V599E) kinase) of 8.48, a pIC50 (KDR kinase) of 7.09 and a pIC50 (Abl kinase) of 6.41.
For `CC(C)(C)c1cc(NC(=O)Nc2cccc(Cl)c2Cl)n(-c2ccc(CO)cc2)n1` [Example 19, 1-{3-t-butyl-1-[4-(hydroxymethyl)-phenyl]-1H-pyrazol-5-yl}-3-(2,3-dichlorophenyl)urea], the pIC50 (B-Raf(V599E) kinase) was 8.32, the pIC50 (KDR kinase) was 6.15 and the pIC50 (Abl kinase) was 6.21.
`CC(C)(C)c1cc(NC(=O)Nc2cccc(Cl)c2Cl)n(-c2cccc(CCN)c2)n1` [Example 39, 1-{1-[3-(2-aminoethyl)phenyl]-3-t-butyl-1H-pyrazol-5-yl}-3-(2,3-dichlorophenyl)urea] was tested, and the pIC50 (B-Raf(V599E) kinase) was 8.15, the pIC50 (KDR kinase) was 6.62 and the pIC50 (Abl kinase) was 6.46.
`CN(C)CCc1cccc(-n2nc(C(C)(C)C)cc2NC(=O)Nc2cccc(Cl)c2Cl)c1` [Example 40, 1-(3-t-butyl-1-{3-[2-(dimethylamino)ethyl]phenyl}-1H-pyrazol-5-yl)-3-(2,3-di-chlorophenyl)urea] was tested, and the pIC50 (B-Raf(V599E) kinase) was 8.06, the pIC50 (KDR kinase) was 6.33 and the pIC50 (Abl kinase) was 6.24.
With `CC(C)(C)c1cc(NC(=O)Nc2cccc(Cl)c2Cl)n(-c2cccc(CN)c2)n1` [Example 42, 1-{1-[3-(aminomethyl)phenyl]-3-t-butyl-1H-pyrazol-5-yl}-3-(2,3-dichloro-phenyl)urea] the pIC50 (B-Raf(V599E) kinase) was 8.00, the pIC50 (KDR kinase) was 6.44 and the pIC50 (Abl kinase) was 5.82.
`CC(C)(C)c1cc(NC(=O)Nc2cccc(Cl)c2Cl)n(-c2cccc(C(=N)NO)c2)n1` [Example 43, 1-{1-[3-(N-hydroxycarbamimidoyl)phenyl]-3-t-butyl-1H-pyrazol-5-yl}-3-(2,3-dichlorophenyl)-urea] gave a pIC50 (B-Raf(V599E) kinase) of 8.37, a pIC50 (KDR kinase) of 6.44 and a pIC50 [1] of 7.89.
Work on `CC(C)(C)c1cc(NC(=O)Nc2ccc(Cl)cc2)n(-c2cc(CO)c3ccccc3c2)n1` [Example 61] yielded a pIC50 (B-Raf(V599E) kinase) of 7.74, a pIC50 (KDR kinase) of 5.82 and a pIC50 (Abl kinase) of 6.09.
`CC(C)(C)c1cc(NC(=O)Nc2cccc(Cl)c2Cl)n(-c2ccc3c(c2)CCN3)n1` [Example 106, 1-(3-t-butyl-1-(indolin-5-yl)-1H-pyrazol-5-yl)-3-(2,3-dichlorophenyl)urea] was tested, and the pIC50 (B-Raf(V599E) kinase) was 8.44, the pIC50 (KDR kinase) was 6.92 and the pIC50 [1] was 7.92.
With `CC(C)(C)c1cc(NC(=O)Nc2cc(F)cc(F)c2F)n(-c2ccc3c(c2)CCN3S(C)(=O)=O)n1` [Example 109, 1-(3-t-butyl-1-(1-(methylsulfonyl)indolin-5-yl)-1H-pyrazol-5-yl)-3-(2,3,5-trifluorophenyl)urea] the pIC50 (B-Raf(V599E) kinase) was 8.57, the pIC50 (KDR kinase) was 7.42 and the pIC50 (Abl kinase) was 6.85.
For `CC(C)(C)c1cc(NC(=O)Nc2cccc(Cl)c2Cl)n(-c2ccc3c(c2)CN(C(=N)N)CC3)n1` [Example 130, 1-[3-t-butyl-1-(2-carbamimidoyl-1,2,3,4-tetrahydroisoquinolin-7-yl)-1H-pyrazol-5-yl]-3-(2,3-dichlorophenyl)urea], the pIC50 (KDR kinase) was 6.49 and the pIC50 (Abl kinase) was 6.64.
`CC(C)(C)c1cc(NC(=O)Nc2cccc(Cl)c2Cl)n(-c2ccc3c(c2)CCN3S(=O)(=O)C(F)(F)F)n1` [Example 201, 1-(3-t-butyl-1-(1-(trifluoromethylsulfonyl)indolin-5-yl)-1H-pyrazol-5-yl)-3-(2,3-dichlorophenyl)urea] showed a pIC50 (KDR kinase) of 6.89 and a pIC50 [1] of 6.82.
`CC(C(=O)O)c1ccc(-n2nc(C(C)(C)C)cc2NC(=O)Nc2cccc(Cl)c2Cl)cc1` (centres unmarked) [Example 202, 2-(4-(3-t-butyl-5-(3-(2,3-dichlorophenyl)ureido)-1H-pyrazol-1-yl)phenyl)propanoic acid] gave a pIC50 (KDR kinase) of 6.64 and a pIC50 [1] of 7.92.
`CC(C(N)=O)c1ccc(-n2nc(C(C)(C)C)cc2NC(=O)Nc2cccc(Cl)c2Cl)cc1` (centres unmarked) [Example 203, 1-(1-(4-(1-amino-1-oxopropan-2-yl)phenyl)-3-t-butyl-1H-pyrazol-5-yl)-3-(2,3-dichlorophenyl)urea] showed a pIC50 (KDR kinase) of 6.80 and a pIC50 [1] of 7.77.
`CNC(=O)C1NCCc2cc(-n3nc(C(C)(C)C)cc3NC(=O)Nc3cccc(Cl)c3Cl)ccc21` (centres unmarked) [Example 204, 1-(3-t-butyl-1-(1-(methylcarbamoyl)-1,2,3,4-tetrahydroisoquinolin-6-yl)-1H-pyrazol-5-yl)-3-(2,3-dichlorophenyl)urea] showed a pIC50 (KDR kinase) of 7.00 and a pIC50 [1] of 8.05.
Work on `CC(C)(C)c1cc(NC(=O)Nc2cccc(Cl)c2Cl)n(-c2ccc3c(c2)CC(C(=O)O)NC3)n1` (centres unmarked) [Example 205] yielded a pIC50 (KDR kinase) of 6.55 and a pIC50 [1] of 7.54.
With `COc1ccc(-n2nc(C(C)(C)C)cc2NC(=O)Nc2cccc(F)c2F)cc1` [Example 241, 1-[3-t-butyl-1-(4-methoxyphenyl)-1H-pyrazol-5-yl]-3-(2,3-difluorophenyl)urea] the pIC50 (B-Raf(V599E) kinase) was 7.62, the pIC50 (KDR kinase) was 6.24 and the pIC50 [1] was 6.66.
Molecule `CCOC(=O)CCc1cccc(-n2nc(C(C)(C)C)cc2NC(=O)Nc2cccc(Cl)c2Cl)c1` [Example 264, 3-(3-{3-t-butyl-5-[3-(2,3-dichlorophenyl)ureido]-1H-pyrazol-1-yl}phenyl)propionic acid ethyl ester] has a pIC50 (B-Raf(V599E) kinase) of 8.14, a pIC50 (KDR kinase) of 6.85 and a pIC50 [1] of 7.09.
`CC(Cc1cccc(-n2nc(C(C)(C)C)cc2NC(=O)Nc2cccc(Cl)c2Cl)c1)C(=O)O` (centres unmarked) [Example 267, 3-(3-{3-t-butyl-5-[3-(2,3-dichlorophenyl)ureido]-1H-pyrazol-1-yl}-phenyl)-2-methylpropanoic acid] showed a pIC50 (B-Raf(V599E) kinase) of 8.10, a pIC50 (KDR kinase) of 6.26 and a pIC50 [1] of 7.92.
In the case of `CC(C)(C)c1cc(NC(=O)Nc2cccc(Cl)c2Cl)n(-c2cccc(Cn3c(=O)[nH]n(-c4ccccc4)c3=O)c2)n1` [Example 273, 1-(3-t-butyl-1-{3-[(3,5-dioxo-1-phenyl-1,2,4-triazolidin-4-yl)methyl]phenyl}-1H-pyrazol-5-yl)-3-(2,3-dichlorophenyl)urea], the pIC50 (B-Raf(V599E) kinase) was 8.06, the pIC50 (KDR kinase) was 5.77 and the pIC50 [1] was 7.47.
In the case of `CC(C)(C)c1cc(NC(=O)Nc2cc(F)cc(F)c2F)n(-c2cc(CNC(N)=O)c3ccccc3c2)n1` [Example 296], the pIC50 (B-Raf(V599E) kinase) was 8.52 and the pIC50 (KDR kinase) was 6.70.
For `CC(C)(C)c1cc(NC(=O)Nc2cc(F)c(F)cc2F)n(-c2cc(CNC(N)=O)c3ccccc3c2)n1` [Example 297], the pIC50 (B-Raf(V599E) kinase) was 8.49 and the pIC50 (KDR kinase) was 6.57.
Work on `CC(C)(C)c1cc(NC(=O)Nc2cccc(F)c2F)n(-c2ccc3c(c2)CCN3)n1` [Example 307, 1-(3-t-butyl-1-(indolin-5-yl)-1H-pyrazol-5-yl)-3-(2,3-difluorophenyl)urea] yielded a pIC50 (B-Raf(V599E) kinase) of 8.00 and a pIC50 (KDR kinase) of 6.14.
With `CC(C)(C)c1cc(NC(=O)Nc2ccsc2)n(-c2ccc3c(c2)CCC(=O)N3)n1` [Example 316, 1-(3-t-butyl-1-(2-oxo-1,2,3,4-tetrahydro-quinolin-6-yl)-1H-pyrazol-5-yl)-3-(thiophen-3-yl)urea] the pIC50 (B-Raf(V599E) kinase) was 7.18 and the pIC50 (KDR kinase) was 4.89.
Molecule `CC(C)(C)c1cc(NC(=O)NC2CCCCC2)n(-c2ccc3c(c2)CCC(=O)N3)n1` [Example 318, 1-(3-t-butyl-1-(2-oxo-1,2,3,4-tetrahydroquinolin-6-yl)-1H-pyrazol-5-yl)-3-cyclohexylurea] has a pIC50 (B-Raf(V599E) kinase) of 7.54 and a pIC50 (KDR kinase) of 5.00.
`CC(C)(C)c1cc(NC(=O)Nc2ccccc2)n(-c2ccc3c(c2)CCC(=O)N3)n1` [Example 319, 1-(3-t-butyl-1-(2-oxo-1,2,3,4-tetrahydro-quinolin-6-yl)-1H-pyrazol-5-yl)-3-phenylurea] showed a pIC50 (B-Raf(V599E) kinase) of 7.49 and a pIC50 (KDR kinase) of 5.37.
`CC(C)(C)c1cc(NC(=O)Nc2cccc(Cl)c2Cl)n(-c2ccc3c(c2)CCN(S(C)(=O)=O)CC3)n1` [Example 336, 1-(3-t-butyl-1-(3-(methylsulfonyl)-2,3,4,5-tetrahydro-1H-benzo[d]azepin-7-yl)-1 H-pyrazol-5-yl)-3-(2,3-dichlorophenyl)urea] gave a pIC50 (B-Raf(V599E) kinase) of 8.70, a pIC50 (KDR kinase) of 6.77 and a pIC50 [1] of 7.96.
`CC(C)(C)c1cc(NC(=O)Nc2cccc(Cl)c2Cl)n(-c2ccc(CC(=O)O)cc2)n1` [Example 383] showed a pIC50 (B-Raf(V599E) kinase) of 8.09, a pIC50 (KDR kinase) of 6.55 and a pIC50 [1] of 8.15.
`CC(C)(C)c1cc(NC(=O)Nc2cccc(Cl)c2Cl)n(-c2ccc(CC(=O)N3CCS(=O)(=O)CC3)cc2)n1` [Example 495] showed a pIC50 (B-Raf(V599E) kinase) of 7.26 and a pIC50 (KDR kinase) of 5.82.
`CC1(O)CCN(C(=O)Cc2ccc(-n3nc(C(C)(C)C)cc3NC(=O)Nc3cccc(Cl)c3Cl)cc2)CC1` [Example 496, 1-(3-t-butyl-1-{4-[2-(4-hydroxy-4-methylpiperidin-1-yl)-2-oxoethyl]phenyl}-1H-pyrazol-5-yl)-3-(2,3-dichlorophenyl)urea] gave a pIC50 (B-Raf(V599E) kinase) of 7.59, a pIC50 (KDR kinase) of 6.33 and a pIC50 [1] of 8.30.
